Read-outs that look alike come from different tables or passages of the source.
What was measured:
Experiment in all cases: Test C pre-/postemergence greenhouse herbicide test
Format in all cases: in vivo
kochia (Kochia scoparia) = settings: Postemergence
Method in brief: (§1)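 Greenhouse pre- and postemergence screen: compounds in a non-phytotoxic solvent mix plus surfactant were applied to soil/sand-sown seeds or to 1- to 4-leaf plants. Visual rating 13–15 d later, 0 (no effect) to 100 (complete control).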

corn (Zea mays) = settings: Zea mays, Corn, read-out: Plant response rating; for plant injury at 31 g/ha: 31 g ai/ha; for plant injury at 62 g/ha: 62 g ai/ha; for plant injury at 125 g/ha: 125 g ai/ha; for plant injury at 250 g/ha: 250 g ai/ha
Method in brief: as §1

[1] = system: johnsongrass (Sorghum halepense); settings: Sorghum halepense, Johnsongrass, read-out: Plant response rating; for pest or weed control at 31 g/ha: 31 g ai/ha; for pest or weed control at 62 g/ha: 62 g ai/ha; for pest or weed control at 125 g/ha: 125 g ai/ha; for pest or weed control at 250 g/ha: 250 g ai/ha
Method in brief: as §1

[2] = system: waterhemp (common waterhemp, Amaranthus rudis); settings: Waterhemp
Method in brief: as §1

[3] = system: wheat (winter wheat, Triticum aestivum); settings: Triticum aestivum, Wheat, read-out: Plant response rating; for plant injury at 62 g/ha: 62 g ai/ha; for plant injury at 125 g/ha: 125 g ai/ha; for plant injury at 250 g/ha: 250 g ai/ha
Method in brief: as §1

soybean (Glycine max) = settings: Glycine max, Soybean, read-out: Plant response rating; for plant injury at 62 g/ha: 62 g ai/ha; for plant injury at 125 g/ha: 125 g ai/ha; for plant injury at 250 g/ha: 250 g ai/ha
Method in brief: as §1

[4] = system: galium (catchweed bedstraw, Galium aparine); settings: Galium, read-out: Plant response rating; for pest or weed control at 31 g/ha: 31 g ai/ha; for pest or weed control at 62 g/ha: 62 g ai/ha; for pest or weed control at 125 g/ha: 125 g ai/ha; for pest or weed control at 250 g/ha: 250 g ai/ha
Method in brief: as §1

[5] = system: nutsedge, yellow (yellow nutsedge, Cyperus esculentus); settings: Cyperus, Nutsedge, Yellow, read-out: Plant response rating; for pest or weed control at 31 g/ha: 31 g ai/ha; for pest or weed control at 62 g/ha: 62 g ai/ha; for pest or weed control at 125 g/ha: 125 g ai/ha; for pest or weed control at 250 g/ha: 250 g ai/ha
Method in brief: as §1

[6] = system: morningglory (Ipomoea coccinea); settings: Morningglory
Method in brief: as §1

[7] = system: pigweed (Amaranthus retroflexus); settings: Amaranthus retroflexus, Pigweed, read-out: Plant response rating; for pest or weed control at 31 g/ha: 31 g ai/ha; for pest or weed control at 62 g/ha: 62 g ai/ha; for pest or weed control at 125 g/ha: 125 g ai/ha; for pest or weed control at 250 g/ha: 250 g ai/ha
Method in brief: as §1

[8] = system: barnyardgrass (Echinochloa crus-galli); settings: Barnyardgrass
Method in brief: as §1

[9] = system: lambsquarters (Chenopodium album)
Method in brief: as §1

[10] = system: oat, wild (wild oat, Avena fatua); settings: Postemergence
Method in brief: as §1

[11] = post-emergence, Postemergence, 31 g ai/ha

Cc1cc(=O)n(-c2ccc(F)cc2)nc1Cc1ccnc(C(F)(F)F)c1 [Compound 1, 2-(4-fluorophenyl)-5-methyl-6-[[2-(trifluoromethyl)-4-pyridinyl]methyl]-3(2H)-pyridazinone]
Plant response rating (kochia (Kochia scoparia); 31 g ai/ha): 80
Plant response rating (kochia (Kochia scoparia); 62 g ai/ha): 80
Plant response rating (kochia (Kochia scoparia); 125 g ai/ha): 85
Plant response rating (kochia (Kochia scoparia); 250 g ai/ha): 85
plant injury at 31 g/ha (corn (Zea mays); post-emergence, Postemergence): 5%
plant injury at 62 g/ha (corn (Zea mays); post-emergence, Postemergence): 5%
plant injury at 125 g/ha (corn (Zea mays); post-emergence, Postemergence): 5%
plant injury at 250 g/ha (corn (Zea mays); post-emergence, Postemergence): 10%
plant injury at 31 g/ha (corn (Zea mays); pre-emergence, Preemergence): 15%
plant injury at 62 g/ha (corn (Zea mays); pre-emergence, Preemergence): 50%
plant injury at 125 g/ha (corn (Zea mays); pre-emergence, Preemergence): 90%
plant injury at 250 g/ha (corn (Zea mays); pre-emergence, Preemergence): 95%
pest or weed control at 31 g/ha ([1]; post-emergence, Postemergence): 5%
pest or weed control at 62 g/ha ([1]; post-emergence, Postemergence): 5%
pest or weed control at 125 g/ha ([1]; post-emergence, Postemergence): 5%
pest or weed control at 250 g/ha ([1]; post-emergence, Postemergence): 5%
pest or weed control at 31 g/ha ([1]; pre-emergence, Preemergence): 35%
pest or weed control at 62 g/ha ([1]; pre-emergence, Preemergence): 60%
pest or weed control at 125 g/ha ([1]; pre-emergence, Preemergence): 85%
pest or weed control at 250 g/ha ([1]; pre-emergence, Preemergence): 100%
Plant response rating ([2]; Postemergence, 31 g ai/ha): 50
Plant response rating ([2]; Postemergence, 62 g ai/ha): 50
Plant response rating ([2]; Postemergence, 125 g ai/ha): 65
Plant response rating ([2]; Postemergence, 250 g ai/ha): 65
Plant response rating ([2]; Preemergence, 62 g ai/ha): 100
Plant response rating ([2]; Preemergence, 125 g ai/ha): 100
Plant response rating ([2]; Preemergence, 250 g ai/ha): 100
plant injury at 31 g/ha [3, 11]: 0%
plant injury at 62 g/ha ([3]; post-emergence, Postemergence): 5%
plant injury at 125 g/ha ([3]; post-emergence, Postemergence): 5%
plant injury at 250 g/ha ([3]; post-emergence, Postemergence): 5%
plant injury at 62 g/ha ([3]; pre-emergence, Preemergence): 5%
plant injury at 125 g/ha ([3]; pre-emergence, Preemergence): 15%
plant injury at 250 g/ha ([3]; pre-emergence, Preemergence): 70%
plant injury at 31 g/ha (soybean (Glycine max); [11]): 35%
plant injury at 62 g/ha (soybean (Glycine max); post-emergence, Postemergence): 40%
plant injury at 125 g/ha (soybean (Glycine max); post-emergence, Postemergence): 50%
plant injury at 250 g/ha (soybean (Glycine max); post-emergence, Postemergence): 70%
plant injury at 62 g/ha (soybean (Glycine max); pre-emergence, Preemergence): 60%
plant injury at 125 g/ha (soybean (Glycine max); pre-emergence, Preemergence): 95%
plant injury at 250 g/ha (soybean (Glycine max); pre-emergence, Preemergence): 98%
pest or weed control at 31 g/ha ([4]; post-emergence, Postemergence): 40%
pest or weed control at 62 g/ha ([4]; post-emergence, Postemergence): 65%
pest or weed control at 125 g/ha ([4]; post-emergence, Postemergence): 70%
pest or weed control at 250 g/ha ([4]; post-emergence, Postemergence): 70%
pest or weed control at 31 g/ha ([4]; pre-emergence, Preemergence): 95%
pest or weed control at 62 g/ha ([4]; pre-emergence, Preemergence): 100%
pest or weed control at 125 g/ha ([4]; pre-emergence, Preemergence): 100%
pest or weed control at 250 g/ha ([4]; pre-emergence, Preemergence): 100%
pest or weed control at 31 g/ha ([5]; post-emergence, Postemergence): 0%
pest or weed control at 62 g/ha ([5]; post-emergence, Postemergence): 5%
pest or weed control at 125 g/ha ([5]; post-emergence, Postemergence): 5%
pest or weed control at 250 g/ha ([5]; post-emergence, Postemergence): 5%
pest or weed control at 31 g/ha ([5]; pre-emergence, Preemergence): 10%
pest or weed control at 62 g/ha ([5]; pre-emergence, Preemergence): 30%
pest or weed control at 125 g/ha ([5]; pre-emergence, Preemergence): 50%
pest or weed control at 250 g/ha ([5]; pre-emergence, Preemergence): 55%
Plant response rating ([6]; Postemergence, 31 g ai/ha): 60
Plant response rating ([6]; Postemergence, 125 g ai/ha): 70
Plant response rating ([6]; Postemergence, 250 g ai/ha): 70
Plant response rating ([6]; Preemergence, 31 g ai/ha): 50
Plant response rating ([6]; Preemergence, 62 g ai/ha): 90
Plant response rating ([6]; Preemergence, 125 g ai/ha): 100
Plant response rating ([6]; Preemergence, 250 g ai/ha): 100
pest or weed control at 31 g/ha ([7]; post-emergence, Postemergence): 35%
pest or weed control at 62 g/ha ([7]; post-emergence, Postemergence): 55%
pest or weed control at 125 g/ha ([7]; post-emergence, Postemergence): 65%
pest or weed control at 250 g/ha ([7]; post-emergence, Postemergence): 85%
pest or weed control at 31 g/ha ([7]; pre-emergence, Preemergence): 100%
pest or weed control at 62 g/ha ([7]; pre-emergence, Preemergence): 100%
pest or weed control at 125 g/ha ([7]; pre-emergence, Preemergence): 100%
pest or weed control at 250 g/ha ([7]; pre-emergence, Preemergence): 100%
Plant response rating ([8]; Postemergence, 31 g ai/ha): 10
Plant response rating ([8]; Postemergence, 62 g ai/ha): 10
Plant response rating ([8]; Postemergence, 125 g ai/ha): 10
Plant response rating ([8]; Postemergence, 250 g ai/ha): 10
Plant response rating ([8]; Preemergence, 31 g ai/ha): 35
Plant response rating ([8]; Preemergence, 62 g ai/ha): 85
Plant response rating ([8]; Preemergence, 125 g ai/ha): 100
Plant response rating ([8]; Preemergence, 250 g ai/ha): 100
Plant response rating ([9]; Postemergence, 31 g ai/ha): 60
Plant response rating ([9]; Postemergence, 125 g ai/ha): 65
Plant response rating ([9]; Postemergence, 250 g ai/ha): 75
Plant response rating ([9]; Preemergence, 31 g ai/ha): 100
Plant response rating ([9]; Preemergence, 62 g ai/ha): 100
Plant response rating ([9]; Preemergence, 125 g ai/ha): 100
Plant response rating ([9]; Preemergence, 250 g ai/ha): 100
Plant response rating ([10]; 31 g ai/ha): 5
Plant response rating ([10]; 62 g ai/ha): 5
Plant response rating ([10]; 125 g ai/ha): 5
Plant response rating ([10]; 250 g ai/ha): 5

— US10202361B2, “Pyridazinones as herbicides” (E I DU PONT DE NEMOURS AND COMPANY, priority 2014, dated 2019)
